Experimental data taken from patent publication US20090171621A1, “MEASURING THE DISTANCE BETWEEN DEVICES” (KONINKLIJKE PHILIPS ELECTRONICS, N.V., priority 2004, published 2009).

Assays:
egg-laying chickens [1] = settings: previous art, cited from earlier work
ISA brown hens [2] = assay: Egg cholesterol analysis (yolk weight, yolk cholesterol by gas chromatography) of hens fed supplemented diet; format: in vivo; settings: for Cholesterol content / Cholesterol content change / Cholesterol concentration: 6 weeks; for Egg york weight: 6 weeks (Table 5); for Cholesterol content change: compared to control; for Cholesterol concentration: per gram of yolk; for Total yolk/egg cholesterol content, percentage change (reduction) compared to control: 0.03% in feed
Description: (§1) Healthy ISA brown hens, 45-week old, were assigned randomly to each dietary group (control group, 8 birds; experimental group, 6 birds each). Each bird was placed in an individual cage in an environmentally controlled room (25° C., 50% relative humidity, 16L:8D). The hens were allowed for 2 weeks in which to adapt to the feed with no additives and the housing. Control birds were fed a commercial diet based on corn and soybean meal (Table 1), while birds in experimental groups were fed diets supplemented with 0.003 or 0.03% of compactin (Sigma Aldrich Korea) for 6 weeks. Feed and water were provided ad libitum throughout the experiment. Feed consumption, egg production and egg weight were recorded daily. Egg production was expressed as percent hen day production; (100×number of eggs laid)/(number of hens×days).
For egg cholesterol analysis, eggs from each bird were collected and egg yolk was separated, weighed, and sampled for analysis. Lipids from eggs were extracted by the method of Folch et al. (1957). Briefly, one gram of sample was saponified with 3 mL of 33% KOH and incubated with 30 mL of 95% methanol in a 65° C. water bath for 90 min. After saponification, 10 mL hexane and 3 mL water were added, followed by vigorous shaking for 10 min. 5α-cholestan (Sigma C-8300) was used as an internal standard. Cholesterol content was determined by a gas chromatography (Shimadzu, Japan) using column VB-1 (30 m×0.25 mm×0.25 μm, VICI Inc.) with a split ratio of 100:1 and nitrogen as carrier gas for a column flow rate of 0.54 mL/min. Injector, column, and detector temperatures were 275° C., 290° C., and 340° C., respectively.
Egg production and yolk cholesterol analysis was performed with 0.003 and 0.03% pravastatin administered group with the same procedure as described in Example 1 above. Hen performance was investigated by measuring egg weight and egg production as in Table 4. […]

ISA brown hens [3] = assay: Egg laying performance of hens fed supplemented diet (egg weight, egg production); format: in vivo; settings: for Egg weight / Egg production: 6 weeks; for Egg production: percent hen day production
Description: as §1
The effects of 0.003% or 0.03% compactin on the laying performance of 45-week old ISA brown hens were investigated (Table 2). Egg weight was maintained at more than 60 grams after 6 weeks of oral administrations of compactin at both doses. […] Maintenance of laying performance with compactin feeding is of contrast to the previous art in which atorvastatin reduced egg production down to 70% after feeding for 5-week.
Egg production and yolk cholesterol analysis was performed with 0.003 and 0.03% pravastatin administered group with the same procedure as described in Example 1 above. Hen performance was investigated by measuring egg weight and egg production as in Table 4. Pravastatin group had maintained above 80% of egg production rate after 6-week administration, same as control.
Egg production and yolk cholesterol analysis was performed with the same procedure as described in Example 1 above except 0.5 and 1% of Streptomyces cell precipitates and bioconversion reaction broth were administered instead of compactin. Hen performance was investigated by measuring egg weight and egg production as in Table 6.

[4] = clinical trials / prescription drug development; cited from earlier work
egg-laying chickens [5] = settings: previous art, cited from earlier work; remark: listed apart in the source

Row | Molecule | Cholesterol content (ISA brown hens [2]; 0.003 weight % added to feed) | Cholesterol content change (ISA brown hens [2]; 0.003 weight % added to feed) | Cholesterol concentration (ISA brown hens [2]; 0.003 weight % added to feed) | Total yolk/egg cholesterol content, percentage change (reduction) compared to control (ISA brown hens [2]; given without sign) | Cholesterol content (ISA brown hens [2]; 0.03 weight % added to feed) | Cholesterol content change (ISA brown hens [2]; 0.03 weight % added to feed) | Cholesterol concentration (ISA brown hens [2]; 0.03 weight % added to feed) | Toxicity [4] | also measured
1 | CC[C@H](C)C(=O)O[C@H]1C[C@@H](C)C=C2C=C[C@H](C)[C@H](CC[C@@H]3C[C@@H](O)CC(=O)O3)[C@H]21 [lovastatin] |  |  |  |  |  |  |  |  | Reduction of egg cholesterol level (egg-laying chickens [1]; at its high dose): 3-6%
2 | pravastatin | 207 mg/egg | −6% | 12.5 ± 0.5 mg/g | 24% | 167 mg/egg | −24% | 10.4 ± 0.5 mg/g | not toxic | Egg york weight (ISA brown hens [2]; 0.003 weight % added to feed): 16.5 ± 0.4 g; Egg york weight (ISA brown hens [2]; 0.03 weight % added to feed): 16.1 ± 0.4 g; Egg weight (ISA brown hens [3]; 0.003 weight % added to feed): 62.5 ± 0.3 g; Egg production (ISA brown hens [3]; 0.003 weight % added to feed): 84%; Egg weight (ISA brown hens [3]; 0.03 weight % added to feed): 58.8 ± 0.7 g; Egg production (ISA brown hens [3]; 0.03 weight % added to feed): 82%; Egg production rate maintained (ISA brown hens [3]; after 6-week administration, 0.003 and 0.03%): above 80%
3 | CC(C)c1c(C(=O)Nc2ccccc2)c(-c2ccccc2)c(-c2ccc(F)cc2)n1CC[C@@H](O)C[C@@H](O)CC(=O)O [atorvastatin] |  |  |  |  |  |  |  |  | Egg production reduced down to (egg-laying chickens [5]; after feeding for 5-week): 70%; Decrease of egg production rate compared to control (egg-laying chickens [5]): more than 15%; Effect of oral administration on egg production (egg-laying chickens [5]): decrease egg production; Cholesterol-lowering effect in eggs (egg-laying chickens [1]; 0.03-0.06% fed for 5 weeks): satisfactory
4 | CC[C@H](C)C(=O)O[C@H]1CCC=C2C=C[C@H](C)[C@H](CC[C@@H]3C[C@@H](O)CC(=O)O3)[C@H]21 [Compactin, compactin] | 185 mg/egg | −16% | 11.2 ± 0.3 mg/g | 29% | 156 mg/egg | −29% | 10.5 ± 0.2 mg/g | serious toxicity | Total yolk cholesterol content, percentage change (reduction) compared to control (ISA brown hens [2]; 0.003% in feed, given without sign): 16%; Egg production compared to the control group (ISA brown hens [3]; in vivo): did not cause any difference in egg production
